# Target: T1, recombinant mouse APA (Mus musculus, UniProt P16406)
# T1 sequence (P16406 1-945): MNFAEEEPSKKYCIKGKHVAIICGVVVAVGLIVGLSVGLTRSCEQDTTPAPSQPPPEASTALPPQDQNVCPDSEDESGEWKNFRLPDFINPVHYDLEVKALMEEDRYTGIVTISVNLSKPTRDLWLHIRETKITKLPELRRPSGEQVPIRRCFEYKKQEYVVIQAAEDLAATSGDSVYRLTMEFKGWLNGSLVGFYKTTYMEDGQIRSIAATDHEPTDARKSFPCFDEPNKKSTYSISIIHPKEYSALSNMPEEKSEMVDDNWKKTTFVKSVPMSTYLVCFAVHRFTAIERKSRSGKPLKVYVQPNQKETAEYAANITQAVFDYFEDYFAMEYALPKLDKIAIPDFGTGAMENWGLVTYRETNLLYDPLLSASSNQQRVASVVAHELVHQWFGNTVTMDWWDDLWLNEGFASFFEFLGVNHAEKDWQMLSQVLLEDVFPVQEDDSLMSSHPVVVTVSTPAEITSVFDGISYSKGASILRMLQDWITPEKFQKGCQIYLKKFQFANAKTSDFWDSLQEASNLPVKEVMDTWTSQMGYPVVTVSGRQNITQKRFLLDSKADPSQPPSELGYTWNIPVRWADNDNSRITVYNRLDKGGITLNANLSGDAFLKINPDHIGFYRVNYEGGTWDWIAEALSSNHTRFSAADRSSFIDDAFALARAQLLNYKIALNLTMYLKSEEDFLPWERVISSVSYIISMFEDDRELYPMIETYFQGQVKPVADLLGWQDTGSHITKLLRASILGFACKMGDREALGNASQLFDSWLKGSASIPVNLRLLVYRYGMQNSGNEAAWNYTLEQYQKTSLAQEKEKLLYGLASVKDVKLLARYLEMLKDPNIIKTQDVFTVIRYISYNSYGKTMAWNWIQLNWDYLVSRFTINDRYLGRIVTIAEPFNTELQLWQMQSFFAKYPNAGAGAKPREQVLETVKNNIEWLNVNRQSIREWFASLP
# Experiment: Measurement of APA activity in vitro (hydrolysis of GluβNa, colorimetric)
# Format: biochemical
# Conditions: 200 μM Glu-βNa, pH 7.4, 37° C., 4 mM CaCl2, read-out: In vitro inhibition of aminopeptidase A, IC50 classification
# Description: Measurement of APA activity in vitro is based on the protocol of Goldbarg adjusted to the scale of assaying on microplates (Pro Bind™ 3915) (Chauvel et al., 1994). In vitro, in the presence of calcium ions, APA hydrolyses a synthetic substrate α-L-glutamyl-β-naphthylamide (GluβNa) to glutamate and β-naphthylamine ((βNa). A diazotation reaction in acidic medium makes it possible to reveal the β-naphthylamine by formation of a violet-coloured complex: spectrophotometric measurement then makes it possible to know the amount of complex formed and, by reference to a standard curve produced with increasing concentrations of β-naphthylamine, to deduce the enzymatic activity of the sample.
# The Glu-βNa substrate (Bachem) and the β-naphthylamine (Sigma) are dissolved in 50% DMSO (dimethyl sulphoxide) and 0.1 N HCl respectively, and conserved at −20° C. at a concentration of 10^−2 M. The diazotation reaction is carried out in the presence of sodium nitrite (87 mM), ammonium sulfamate (130 mM) and N-(1-naphthyl)-ethylenediamine dihydrochloride (23 mM in 95% ethanol).
# The reaction takes place at pH 7.4 in 50 mM tris-HCl buffer, in the presence of calcium (4 mM CaCl2); recombinant mouse APA is incubated at 37° C. in the presence of the substrate (200 μM Glu-βNa) and in the presence or absence of various concentrations of the inhibitor to be tested, in a final volume of 100 μL. The reaction is stopped by adding 10 μL, of 3N HCl. A standard curve of β-naphthylamine was prepared in parallel by diazotizing increasing concentrations (up to 0.2 mM) of 2-naphthylamine in 0.1 N HCl.
# The following are added to each well: 25 μL of sodium nitrite (NaNO2) (mix, wait 5 minutes at room temperature), 50 μI, of ammonium sulfamate (mix, wait 5 minutes at room temperature), then add 25 μL of N-(1-naphthyl) ethylenediamine dihydrochloride (mix, wait for stabilization of the violet colour for approximately 30 minutes at 37° C.). The absorbance is then measured at 540 nm.
# The compound EC33 ((S)-3 amino-4-mercapto-butylsulfonic acid) described in application WO 99/36066 was used as a reference compound.
row,IC50 [nM],SMILES
1,300 to 10000,"N[C@H](CS)CCS(=O)(=O)O [EC33, (S)-3 amino-4-mercapto-butylsulfonic acid, reference compound]"
2,30 to 300,"CC(C)CCP(=O)(O)C(N)CCC(=O)O (centres unmarked) [Example 1, 4-amino-4-[hydroxy(3-methylbutyl)phosphoryl]butanoic acid]"
3,30 to 300,"CC(C)CCCP(=O)(O)C(N)CCC(=O)O (centres unmarked) [Example 2, 4-amino-4-[hydroxy(4-methylpentyl)phosphoryl]butanoic acid]"
4,30 to 300,"CC(C)CCCCP(=O)(O)C(N)CCC(=O)O (centres unmarked) [Example 3, 4-amino-4-[hydroxy(5-methylhexyl)phosphoryl]butanoic acid]"
5,30 to 300,"CCCCCP(=O)(O)C(N)CCC(=O)O (centres unmarked) [Example 4, 4-amino-4-[hydroxy(pentyl)phosphoryl]butanoic acid]"
6,30 to 300,"CCCCCCP(=O)(O)C(N)CCC(=O)O (centres unmarked) [Example 5, 4-amino-4-[hexyl(hydroxy)phosphoryl]butanoic acid]"
7,30 to 300,"NC(CCC(=O)O)P(=O)(O)CCCC(F)(F)F (centres unmarked) [Example 6, 4-amino-4-[hydroxy(4,4,4-trifluorobutyl)phosphoryl]butanoic acid]"
8,30 to 300,"NC(CCC(=O)O)P(=O)(O)CCC1CCCCC1 (centres unmarked) [Example 7, 4-amino-4-[(2-cyclohexylethyl)(hydroxy)phosphoryl]butanoic acid]"
9,< 30,"NC(CCC(=O)O)P(=O)(O)CC1CCC1 (centres unmarked) [Example 8, 4-amino-4-[(cyclobutylmethyl)(hydroxy)phosphoryl]butanoic acid]"
10,< 30,"NC(CCC(=O)O)P(=O)(O)CC1CCCC1 (centres unmarked) [Example 9, 4-amino-4-[(cyclopentylmethyl)(hydroxy)phosphoryl]butanoic acid]"
11,< 30,"NC(CCC(=O)O)P(=O)(O)CC1CCCCC1 (centres unmarked) [Example 10, 4-amino-4-[(cyclohexylmethyl)(hydroxy)phosphoryl]butanoic acid]"
